Results reported in patent US20240157166A1, “ALTERNATING MAGNETIC FIELDS AND ANTIBIOTICS TO ERADICATE BIOFILM ON METAL IN A SYNERGISTIC FASHION” (priority 2021, published 2024).
Values after ≈ are worked out from the molar mass of the structure shown. Values belong to the compound of their own block, whether it stands above or below them.

Columns and labels:
[1] = test system: P. aeruginosa (MB699) biofilm; assay: Scanning electron microscopy of MB699 biofilm; type: cell-based; settings: 64 μg/mL; for bacterial morphology by SEM, antibiotic alone: 12 h, no iAMF; for bacterial morphology by SEM, iAMF and antibiotic: 12 h post iAMF (Tmax=65 °C, Nexp=12)
Protocol: […]. The rings were carefully transferred to 4 mL PBS, rinsed in 4 mL of 0.1 M sodium cacodylate buffer three times and fixed for 24 h in 4 mL of 2% glutaraldehyde, 2% paraformaldehyde in 0.1 M sodium cacodylate buffer. After rinsing in 4 mL of cacodylate buffer three times, the samples were re-fixed in 4 mL of 2% osmium in 0.1 M sodium cacodylate buffer for 2 h. Then the rings were further rinsed with 4 mL of deionized water five times and dehydrated at room temperature in five steps by placing the rings in 4 mL of 50, 70 (twice), 85, 95 (twice) and 100% ethanol respectively for 5 min per solution. The rings were then transferred to 4 mL of 25, 50, 75 and 100% (twice) hexamethyldisilazane (HMDS) in ethanol consecutively for 15 min each. Finally, the samples were left to dry for 24 h in a fume hood. The specimens were mounted on aluminum stubs, gold/palladium sputter coated, and examined using a Zeiss Sigma VP scanning electron microscope. The images were acquired at 10 kV with magnification of approximately 35000×.

GFP-PAO1 biofilms = assay: Laser scanning confocal microscopy of GFP-PAO1 biofilm; settings: 0.5 μg/mL
From the text: After staining, rings were mounted on a 50 mm glass bottom plate and images were captured with a Zeiss LSM880 Airyscan laser confocal microscope. The GFP-PA01 bacteria and ConA-stained EPS were imaged using a 40× objective lens. Multiple regions of the ring surface were randomly selected, and Z-stacks were acquired with slice step size of 0.5 μm. Before image processing, the z-stacks were deconvolved using Autoquant×3 (Media Cybernetics, MD, USA) to improve the image resolution in X, Y and Z directions. The deconvolved images were analyzed with Imaris x64 9.1.2 (Bitplane AG, Zurich, Switzerland).

[2] = test system: MDR P. aeruginosa (MB699) biofilm; assay: Biofilm CFU on rings, antibiotic with or without iAMF, MDR strain MB699; settings: for CFU reduction with iAMF at other antibiotic concentrations: meropenem sub-MIC 32 μg/mL, ciprofloxacin increased concentration (128 μg/ml), 48 h
S. aureus (UAMS1) = assay: Minimum inhibitory concentration, S. aureus UAMS1; type: cell-based; settings: Staphylococcus aureus; strain UAMS1
[3] = test system: S. aureus (UAMS1) biofilm; assay: Biofilm CFU on stainless-steel rings, antibiotic with or without iAMF, UAMS1; type: cell-based; settings: for CFU at 24 h, iAMF and antibiotic versus antibiotic alone: antibiotic 2 μg/mL, iAMF Tmax=65 °C, 15 min per dose at 0 and 12 h
Protocol: Biofilm preparation, treatment and quantification.
Doses were delivered at 0 and 12 hours and ring biofilm burden was quantified at various time points as above. For S. aureus experiments, biofilm of UAMS1 were prepared on stainless steel rings according to the culturing protocol and incubated with 2 μg/mL of ceftriaxone or 2 μg/mL of linezolid, in 10 mL TSB media. […] Doses were delivered at 0 and 12 hours and biofilm burden was quantified at 24 hours.

[4] = test system: MDR P. aeruginosa (MB699); assay: microbe, parasite or virus in culture; settings: Pseudomonas aeruginosa, read-out: minimum inhibitory concentration (MIC)

SMILES: O=C(O)c1cn(C2CC2)c2cc(N3CCNCC3)c(F)cc2c1=O [ciprofloxacin]
bacterial morphology by SEM, antibiotic alone [1]: no obvious morphological changes | bacterial morphology by SEM, iAMF and antibiotic [1]: slight lengthening of bacteria and increased wrinkling of the membrane | bacterial morphology by confocal microscopy, ciprofloxacin only (GFP-PAO1 biofilms; 12 h post-treatment): slight elongation | EPS staining and morphology by confocal microscopy, iAMF and ciprofloxacin (GFP-PAO1 biofilms; iAMF Tmax=65 °C, Nexp=12, 12 h): less dense EPS staining | bacterial burden (CFU) at 48 h with iAMF and antibiotic [2]: did not result in a further reduction of CFU | CFU reduction with iAMF at other antibiotic concentrations [2]: did not lead to enhanced CFU decreases

MIC (S. aureus (UAMS1)): 2 µg/mL (≈ 5.93 µM)
SMILES: CC(=O)NC[C@H]1CN(c2ccc(N3CCOCC3)c(F)c2)C(=O)O1 [linezolid]
CFU at 24 h, iAMF and antibiotic versus antibiotic alone [3]: significantly lower CFU | magnitude of biofilm reduction, 7-day versus 2-day biofilm ([3]; iAMF (Tmax=65 °C, 15 min per dose) and 2 μg mL-1 linezolid): no significant difference

MIC (S. aureus (UAMS1)): 2 µg/mL (≈ 3.61 µM)
SMILES: CO/N=C(\C(=O)N[C@@H]1C(=O)N2C(C(=O)O)=C(CSc3nc(=O)c(=O)[nH]n3C)CS[C@H]12)c1csc(N)n1 [ceftriaxone]
CFU after 24 h ([3]; 2 μg/mL ceftriaxone in combination with iAMF (doses at 0 and 12 h)): approaching the limit of detection | CFU at 24 h, iAMF and antibiotic versus antibiotic alone [3]: significantly lower CFU | CFU reduction after 24 h ([3]; ceftriaxone alone, 2 μg/mL): ~2 log | initial decrease of biofilm CFU ([3]; iAMF (Tmax=65 °C, 15 min dose) and 2 μg/mL ceftriaxone, after first dose): over 3 logs

MIC [4]: 64 µg/mL (≈ 167 µM)
SMILES: C[C@@H](O)[C@H]1C(=O)N2C(C(=O)O)=C(S[C@@H]3CN[C@H](C(=O)N(C)C)C3)[C@H](C)[C@H]12 [meropenem]
bacterial morphology by SEM, antibiotic alone [1]: no obvious morphological changes | bacterial morphology by SEM, iAMF and antibiotic [1]: fragmented and deformed bacterial cells | CFU reduction with iAMF at other antibiotic concentrations [2]: also seen | interaction of iAMF and antibiotic in MDR strain ([2]; strain with oprD porin and DNA gyrase mutations): synergistic effect
